Molecules are shown by their SMILES. Values joined by “and” are separate entries in the source; they are usually repeats but may differ in a detail not shown here. Equal values may be shown once.

The nature of assay [1]: Antagonist activity at human CCR10 expressed in mouse BA/F3 cells assessed as inhibition of human CCL27-dependent chemotaxis.
The target in assay [2] is T1, C-C chemokine receptor type 10 (Homo sapiens, UniProt P46092).
T1 sequence (P46092 whole entry): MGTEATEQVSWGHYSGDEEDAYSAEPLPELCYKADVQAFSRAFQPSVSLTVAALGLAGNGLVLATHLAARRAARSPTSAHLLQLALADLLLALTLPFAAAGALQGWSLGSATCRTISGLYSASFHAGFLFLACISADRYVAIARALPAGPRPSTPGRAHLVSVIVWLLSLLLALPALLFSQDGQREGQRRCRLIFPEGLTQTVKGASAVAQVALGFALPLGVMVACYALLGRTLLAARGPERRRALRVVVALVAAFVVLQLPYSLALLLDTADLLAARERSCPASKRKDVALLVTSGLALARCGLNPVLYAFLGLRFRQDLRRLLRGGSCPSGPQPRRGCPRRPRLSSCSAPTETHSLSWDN
The assay is described as follows: Antagonist activity at human CCR10 expressed in mouse BA/F3 cells assessed as inhibition of human CCL27-dependent chemotaxis.

As usually defined, the IC50 is the concentration at which inhibition is half-maximal. For `CC1CCN(C(=O)C(CCn2nccn2)NS(=O)(=O)c2cc(Cl)c(N)c(Cl)c2)CC1` (centres undefined), the IC50 in assay [1] was 1260 nM.

In the case of `CC1CCN(C(=O)[C@@H](CCc2ccccc2)NS(=O)(=O)c2cc(Cl)c(N)c(Cl)c2)CC1`, the IC50 in assay [1] turned out to be 501 nM. Same read-out and setting: under `Cc1ccc(S(=O)(=O)NC(CCn2cccc2C#N)C(=O)N2CCC(C)CC2)c(C)c1N` (centres undefined) stands 79 nM.

For the molecule `CC1CCN(C(=O)C(CCn2cccc2C#N)NS(=O)(=O)c2ccc3[nH]ccc3c2)CC1` (centres undefined), in assay [1], the half-inhibitory concentration (IC50) was 13 nM. Still for that read-out and setting: then `CC1CCN(C(=O)C(CCn2cccc2C#N)NS(=O)(=O)c2ccc3cc[nH]c3c2)CC1` (centres undefined), with 16 nM; and `CC1CCN(C(=O)C(CCn2ccnc2[N+](=O)[O-])NS(=O)(=O)c2cc(Cl)c(N)c(Cl)c2)CC1` (centres undefined), with 53 nM and 50 nM. As to `CC1CCN(C(=O)C(CCn2cccc2C#N)NS(=O)(=O)c2cc(Cl)c(N)c(Cl)c2)CC1` (centres undefined), the IC50 in assay [2] came out at 16 nM. For `CC1CCN(C(=O)C(CCn2ccnc2Cl)NS(=O)(=O)c2cc(Cl)c(N)c(Cl)c2)CC1` (centres undefined), the IC50 in assay [1] was determined as 251 nM. The same measure, in the same setting: then `CC1CCN(C(=O)C(CCn2cccn2)NS(=O)(=O)c2cc(Cl)c(N)c(Cl)c2)CC1` (centres undefined), with 1260 nM.

The values above are taken from BindingDB's records for doi:10.1016/j.bmcl.2016.09.047 (Boehringer Ingelheim Pharmaceuticals, 2016).
